Data: paper PMC4826872, “Underlying Resistance Mechanisms in the Cynosurus echinatus Biotype to Acetyl CoA Carboxylase-Inhibiting Herbicides” (Frontiers in Plant Science, 2016)
pIC50: −log10 of the molar value. Read-outs that look alike come from different tables or passages of the source.

Target: T1, ACCase (chloroplastic acetyl coenzyme A carboxylase)
T1 construct: plastid and cytosolic forms not separated; S biotype has Arg1789, Met2065, Gly2067, Val2077
Assay: NaH14CO3 incorporation into acid-stable product (malonyl-CoA)
Assay type: biochemical, Cynosurus echinatus
Conditions: 5 mM acetyl-CoA, 1.5 mM ATP, 5 mM MgCl2, 15 mM bicarbonate, pH 8.3, 34°C, read-out: I50
Excerpt: NaH14CO3 incorporation into acid-stable product (malonyl-CoA) on ACCase (chloroplastic acetyl coenzyme A carboxylase)

| SMILES | pIC50 (R biotype, stated gain) | pIC50 (S biotype) |
| --- | --- | --- |
| CC(Oc1ccc(Oc2ccc(Cl)cc2Cl)cc1)C(=O)O (stereo not drawn) [Diclofop] | 4.20 | 5.34 |
| C[C@@H](Oc1ccc(Oc2ccc(C#N)cc2F)cc1)C(=O)O [Cihalofop] | 4.15 | 4.99 |
| CCCC(=NOCC)C1=C(O)CC(C2CCCSC2)CC1=O (stereo not drawn) [Cycloxidim] | 5.10 | 5.60 |
| CCc1cc(C)cc(CC)c1-c1c(OC(=O)C(C)(C)C)n2n(c1=O)CCOCC2 [Pinoxaden] | 5.04 | 6.41 |
| CC(Oc1ccc(Oc2nc3ccc(Cl)cc3o2)cc1)C(=O)O (racemic) [Fenoxaprop] | 4.62 | 5.80 |
| CCCC(=NOCC)C1=C(O)CC(CC(C)SCC)CC1=O (stereo not drawn) [Setoxidim] | 2.46 | 3.10 |
